Earlier results, collected in patent US20250235469A1, “Synergistic combinations of Finasteride, Dutasteride, and Minoxidil” (priority 2024, published 2025).

What was measured:
DHT levels = conditions: 5 mg daily dose; 2004 study
[1] = in vivo
[2] = target: T1, 5α-reductase type 2 isoenzyme (Homo sapiens, UniProt P31213)
T1 sequence (P31213 1-254): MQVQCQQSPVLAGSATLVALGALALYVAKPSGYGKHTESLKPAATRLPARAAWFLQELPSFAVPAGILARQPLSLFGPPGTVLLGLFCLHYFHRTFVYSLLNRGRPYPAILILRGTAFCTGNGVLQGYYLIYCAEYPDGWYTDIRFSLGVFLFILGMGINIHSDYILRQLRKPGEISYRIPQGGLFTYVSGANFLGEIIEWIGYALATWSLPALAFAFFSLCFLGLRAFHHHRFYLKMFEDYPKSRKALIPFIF

[3] = target: T2, 5α-reductase type 1 isoenzyme (Homo sapiens, UniProt P18405)
T2 sequence (P18405 1-259): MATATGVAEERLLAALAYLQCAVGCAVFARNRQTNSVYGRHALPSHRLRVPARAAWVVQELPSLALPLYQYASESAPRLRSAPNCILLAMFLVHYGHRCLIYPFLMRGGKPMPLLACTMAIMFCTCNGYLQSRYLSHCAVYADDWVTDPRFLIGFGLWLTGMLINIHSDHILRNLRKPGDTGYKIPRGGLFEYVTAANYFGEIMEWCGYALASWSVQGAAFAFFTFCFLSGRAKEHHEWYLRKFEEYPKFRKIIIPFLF

Compound	reduced DHT levels (DHT levels)	hair count and hair loss in users (hair count; studies of finasteride users)	half-life [1]	inhibition of type 2 isoenzyme of 5α-reductase [2]	increase in hair count (hair count; men, 2006 study, dutasteride compared to finasteride)	inhibition of type 1 isoenzyme of 5α-reductase [3]
CC(C)(C)NC(=O)[C@H]1CC[C@H]2[C@@H]3CC[C@H]4NC(=O)C=C[C@]4(C)[C@H]3CC[C@]12C [finasteride, 17β-(N-tert-butylcarbamoyl)-4-aza-5α-androst-1-en-3-one]	70.8%	both an increase in hair count and a reduction in hair loss	only a few hours	only inhibits the type 2 isoenzyme		
C[C@]12C=CC(=O)N[C@@H]1CC[C@@H]1[C@@H]2CC[C@]2(C)[C@@H](C(=O)Nc3cc(C(F)(F)F)ccc3C(F)(F)F)CC[C@@H]12 [dutasteride, N-[2,5-bis(trifluoromethyl)phenyl]-3-oxo-4-aza-5α-androst-1-ene-17β-carboxamide]	98.4%		several months	inhibits both the types 1 and 2 isoenzymes	higher increase in hair count	inhibits both the types 1 and 2 isoenzymes
